Test results reported in the supplement of paper PMC10307832.

What was measured:
Experiment in all cases: relative viability (nuclei count vs DMSO), 5 days (fraction); higher = more cells survive
[1] = test system: NCI-H1793
How it was run: (§1)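 Medians of duplicate plates are given as relative viability. That measure is the nuclei count in treated wells divided by the count in vehicle wells. Counts were taken on 4× images of lung cancer cell lines in 1536-well plates, 5 days after pin-tool dosing the day after seeding with one drug alone or a fixed anchor-drug dose plus five library-drug doses (not always all listed) in √10 steps.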

[2] = test system: SW 1573
How it was run: as §1

[3] = test system: NCI-H460
How it was run: as §1

[4] = test system: LCLC-103H
How it was run: as §1

[5] = test system: PC-3 [JPC-3]
How it was run: as §1

[6] = test system: HCC-44
How it was run: as §1

[7] = test system: NCI-H838
How it was run: as §1

[8] = test system: LCLC-97TM1
How it was run: as §1

[9] = test system: NCI-H1650
How it was run: as §1

[10] = test system: NCI-H1944
How it was run: as §1

[11] = test system: A-427
How it was run: as §1

[12] = test system: NCI-H650
How it was run: as §1

[13] = test system: H3255
How it was run: as §1

[14] = test system: LK-2
How it was run: as §1

[15] = test system: NCI-H727
How it was run: as §1

[16] = test system: 201T
How it was run: as §1

[17] = test system: SW 900
How it was run: as §1

[18] = test system: COR-L23
How it was run: as §1

[19] = test system: PC-14
How it was run: as §1

[20] = test system: LU99A
How it was run: as §1

[21] = test system: NCI-H2347
How it was run: as §1

[22] = test system: NCI-H23
How it was run: as §1

## CC1(C)CCC(c2ccc(Cl)cc2)=C(CN2CCN(c3ccc(C(=O)NS(=O)(=O)c4ccc(N[C@H](CCN5CCOCC5)CSc5ccccc5)c(S(=O)(=O)C(F)(F)F)c4)cc3)CC2)C1 [Navitoclax] + Cc1cc(Nc2cc(N3CCN(C)CC3)nc(Sc3ccc(NC(=O)C4CC4)cc3)n2)n[nH]1 [Tozasertib] (partner 0.1 µM)
[1]; first compound 0.005 µM
  relative viability: 0.338
[1]; first compound 0.01581 µM
  relative viability: 0.394
[1]; first compound 0.1581 µM
  relative viability: 0.278
[1]; first compound 0.5 µM
  relative viability: 0.275
[2]; first compound 0.005 µM
  relative viability: 0.186
[2]; first compound 0.01581 µM
  relative viability: 0.147
[2]; first compound 0.05 µM
  relative viability: 0.173
[2]; first compound 0.1581 µM
  relative viability: 0.176
[2]; first compound 0.5 µM
  relative viability: 0.103
[3]; first compound 0.005 µM
  relative viability: 0.392
[3]; first compound 0.01581 µM
  relative viability: 0.327
[3]; first compound 0.05 µM
  relative viability: 0.37
[3]; first compound 0.1581 µM
  relative viability: 0.382
[3]; first compound 0.5 µM
  relative viability: 0.397
[4]; first compound 0.005 µM
  relative viability: 0.505
[4]; first compound 0.01581 µM
  relative viability: 0.516
[4]; first compound 0.05 µM
  relative viability: 0.442
[4]; first compound 0.1581 µM
  relative viability: 0.404
[4]; first compound 0.5 µM
  relative viability: 0.466
[5]; first compound 0.005 µM
  relative viability: 0.846
[5]; first compound 0.01581 µM
  relative viability: 0.892
[5]; first compound 0.05 µM
  relative viability: 0.935
[5]; first compound 0.1581 µM
  relative viability: 0.898
[5]; first compound 0.5 µM
  relative viability: 0.876
[6]; first compound 0.05 µM
  relative viability: 1.1
[6]; first compound 0.5 µM
  relative viability: 0.613
[7]; first compound 0.005 µM
  relative viability: 0.295
[7]; first compound 0.01581 µM
  relative viability: 0.328
[7]; first compound 0.05 µM
  relative viability: 0.266
[7]; first compound 0.1581 µM
  relative viability: 0.266
[7]; first compound 0.5 µM
  relative viability: 0.292
[8]; first compound 0.005 µM
  relative viability: 0.238
[8]; first compound 0.01581 µM
  relative viability: 0.164
[8]; first compound 0.05 µM
  relative viability: 0.255
[8]; first compound 0.1581 µM
  relative viability: 0.193
[8]; first compound 0.5 µM
  relative viability: 0.224
[9]; first compound 0.005 µM
  relative viability: 0.363
[9]; first compound 0.01581 µM
  relative viability: 0.419
[9]; first compound 0.05 µM
  relative viability: 0.415
[9]; first compound 0.1581 µM
  relative viability: 0.34
[9]; first compound 0.5 µM
  relative viability: 0.356
[10]; first compound 0.005 µM
  relative viability: 0.254
[10]; first compound 0.01581 µM
  relative viability: 0.246
[10]; first compound 0.05 µM
  relative viability: 0.241
[10]; first compound 0.1581 µM
  relative viability: 0.259
[10]; first compound 0.5 µM
  relative viability: 0.206
[11]; first compound 0.005 µM
  relative viability: 0.199
[11]; first compound 0.01581 µM
  relative viability: 0.192
[11]; first compound 0.05 µM
  relative viability: 0.161
[11]; first compound 0.1581 µM
  relative viability: 0.197
[11]; first compound 0.5 µM
  relative viability: 0.213
[12]; first compound 0.005 µM
  relative viability: 0.711
[12]; first compound 0.01581 µM
  relative viability: 0.818
[12]; first compound 0.05 µM
  relative viability: 0.781
[12]; first compound 0.1581 µM
  relative viability: 0.765
[12]; first compound 0.5 µM
  relative viability: 0.718
[13]; first compound 0.005 µM
  relative viability: 0.532
[13]; first compound 0.01581 µM
  relative viability: 0.705
[13]; first compound 0.05 µM
  relative viability: 0.673
[13]; first compound 0.1581 µM
  relative viability: 0.585
[13]; first compound 0.5 µM
  relative viability: 0.609
[14]; first compound 0.005 µM
  relative viability: 0.189
[14]; first compound 0.01581 µM
  relative viability: 0.187
[14]; first compound 0.05 µM
  relative viability: 0.198
[14]; first compound 0.1581 µM
  relative viability: 0.159
[14]; first compound 0.5 µM
  relative viability: 0.2
[15]; first compound 0.005 µM
  relative viability: 0.621
[15]; first compound 0.01581 µM
  relative viability: 0.692
[15]; first compound 0.1581 µM
  relative viability: 0.676
[15]; first compound 0.5 µM
  relative viability: 0.646
[16]; first compound 0.005 µM
  relative viability: 0.975
[16]; first compound 0.01581 µM
  relative viability: 1.04
[16]; first compound 0.05 µM
  relative viability: 0.778
[16]; first compound 0.1581 µM
  relative viability: 0.931
[16]; first compound 0.5 µM
  relative viability: 1.01
[17]; first compound 0.005 µM
  relative viability: 0.456
[17]; first compound 0.01581 µM
  relative viability: 0.46
[17]; first compound 0.05 µM
  relative viability: 0.385
[17]; first compound 0.1581 µM
  relative viability: 0.59
[17]; first compound 0.5 µM
  relative viability: 0.501
[18]; first compound 0.005 µM
  relative viability: 0.236
[18]; first compound 0.01581 µM
  relative viability: 0.197
[18]; first compound 0.05 µM
  relative viability: 0.172
[18]; first compound 0.1581 µM
  relative viability: 0.198
[18]; first compound 0.5 µM
  relative viability: 0.228
[19]; first compound 0.005 µM
  relative viability: 0.623
[19]; first compound 0.01581 µM
  relative viability: 0.633
[19]; first compound 0.05 µM
  relative viability: 0.7
[19]; first compound 0.1581 µM
  relative viability: 0.553
[19]; first compound 0.5 µM
  relative viability: 0.559
[20]; first compound 0.005 µM
  relative viability: 0.264
[20]; first compound 0.01581 µM
  relative viability: 0.355
[20]; first compound 0.05 µM
  relative viability: 0.244
[20]; first compound 0.1581 µM
  relative viability: 0.337
[20]; first compound 0.5 µM
  relative viability: 0.37
[21]; first compound 0.005 µM
  relative viability: 0.505
[21]; first compound 0.01581 µM
  relative viability: 0.516
[21]; first compound 0.1581 µM
  relative viability: 0.614
[21]; first compound 0.5 µM
  relative viability: 0.668
[22]; first compound 0.005 µM
  relative viability: 0.398
[22]; first compound 0.01581 µM
  relative viability: 0.353
[22]; first compound 0.05 µM
  relative viability: 0.336
[22]; first compound 0.1581 µM
  relative viability: 0.325
[22]; first compound 0.5 µM
  relative viability: 0.352
